Assay results: US20260207717A1, “METHODS FOR TREATING INFANTILE-ONSET POMPE DISEASE IN PEDIATRIC PATIENTS” (Amicus Therapeutics, Inc., priority 2022, published 2026)
“Also recorded” adds a separate entry of the source. Like-named read-outs stand apart in the source and are kept apart here. Marks after values point to notes of the source that are not given here.

Assays:
[1] = test system: single fibers isolated from the white gastrocnemius of Gaa KO mice; experiment: Single fiber analysis (LAMP1/LC3 co-immunofluorescence); format: in vivo
Text: FIG. 17 depicts co-immunofluorescent staining of LAMP1 (green) (see for example, “B”) and LC3 (red) (see, for example, “A”) in single fibers isolated from the white gastrocnemius of Gaa KO mice treated with a vehicle, alglucosidase alfa, or ATB200. “C” depicts clearance of autophagic debris and absence of enlarged lysosome. A minimum of 30 fibers were examined from each animal.
As a result, a significant portion of muscle fibers analyzed (36-60%) from ATB200-treated mice appeared normal or near-normal.

[2] = test system: normal and Pompe fibroblast cell lines; experiment: Cellular uptake of rhGAA (internalized GAA by 4MU-α-Glucoside hydrolysis); format: cell-based
Experimental: The relative cellular uptake of ATB200 and LUMIZYME® rhGAA were compared using normal and Pompe fibroblast cell lines. Comparisons involved 5-100 nM of ATB200 according to the disclosure with 10-500 nM conventional rhGAA product LUMIZYME®. After 16-hr incubation, external rhGAA was inactivated with TRIS base and cells were washed 3-times with PBS prior to harvest. Internalized GAA measured by 4MU-α-Glucoside hydrolysis and was graphed relative to total cellular protein and the results appear in FIGS. 11A-11C.
ATB200 was also shown to be efficiently internalized into cells. […] ATB200 saturates cellular receptors at about 20 nM, while about 250 nM of LUMIZYME® is needed to saturate cellular receptors.

Juvenile toxicology = format: in vivo
Experimental: (§1) The cipaglucosidase alfa dose of 30 mg/kg being evaluated in this protocol was determined from population PK modeling and simulation analyses that included pooled data from 96 adults and 11 pediatric subjects dosed at 20, 25, and 30 mg/kg, including 3 pediatric IOPD patients from the Expanded Access Program (EAP) (ages 1 to 3 years) at the 30 mg/kg dose level. The 30 mg/kg dose level in combination with additional effect from miglustat provided exposures that are well within the safety margin and multiples of exposure established by the juvenile toxicology no-observed-adverse effect-level (NOAEL) of 150 mg/kg.

pediatric IOPD patient = details: for LVEF / LVMI: 2 D
pediatric IOPD patients = experiment: Tolerability and accumulation in 3 pediatric IOPD patients of the EAP; format: in vivo, human; details: 30 mg/kg cipaglucosidase alfa in combination with miglustat, 3 pediatric IOPD patients in the EAP
Experimental: as §1
This frequency of dosing is based on the systemic clearance of the cipaglucosidase alfa and miglustat, and the acuity/severity of disease in IOPD, as well as observations in 3 IOPD patients enrolled in the EAP (ERT-experienced patients in clinical decline).
A weekly frequency of 30 mg/kg cipaglucosidase alfa and miglustat administration will be evaluated in this study. A weekly 30 mg/kg cipaglucosidase alfa and miglustat dose has been administered in pediatric subjects with IOPD from the EAP. […] The rationale for weekly dosing in both cohorts is based on evidence supporting improved survival for IOPD patients receiving weekly dosing of standard of care ERT compared to every other week dosing (Ditters, Huidekper et al, 2021). […]

CIMPR [3] = molecular target: T1, CIMPR (Homo sapiens, UniProt P11717); experiment: CIMPR affinity chromatography (bound vs unbound rhGAA by GAA activity); format: binding
T1 sequence (P11717 41-2491, species assumed): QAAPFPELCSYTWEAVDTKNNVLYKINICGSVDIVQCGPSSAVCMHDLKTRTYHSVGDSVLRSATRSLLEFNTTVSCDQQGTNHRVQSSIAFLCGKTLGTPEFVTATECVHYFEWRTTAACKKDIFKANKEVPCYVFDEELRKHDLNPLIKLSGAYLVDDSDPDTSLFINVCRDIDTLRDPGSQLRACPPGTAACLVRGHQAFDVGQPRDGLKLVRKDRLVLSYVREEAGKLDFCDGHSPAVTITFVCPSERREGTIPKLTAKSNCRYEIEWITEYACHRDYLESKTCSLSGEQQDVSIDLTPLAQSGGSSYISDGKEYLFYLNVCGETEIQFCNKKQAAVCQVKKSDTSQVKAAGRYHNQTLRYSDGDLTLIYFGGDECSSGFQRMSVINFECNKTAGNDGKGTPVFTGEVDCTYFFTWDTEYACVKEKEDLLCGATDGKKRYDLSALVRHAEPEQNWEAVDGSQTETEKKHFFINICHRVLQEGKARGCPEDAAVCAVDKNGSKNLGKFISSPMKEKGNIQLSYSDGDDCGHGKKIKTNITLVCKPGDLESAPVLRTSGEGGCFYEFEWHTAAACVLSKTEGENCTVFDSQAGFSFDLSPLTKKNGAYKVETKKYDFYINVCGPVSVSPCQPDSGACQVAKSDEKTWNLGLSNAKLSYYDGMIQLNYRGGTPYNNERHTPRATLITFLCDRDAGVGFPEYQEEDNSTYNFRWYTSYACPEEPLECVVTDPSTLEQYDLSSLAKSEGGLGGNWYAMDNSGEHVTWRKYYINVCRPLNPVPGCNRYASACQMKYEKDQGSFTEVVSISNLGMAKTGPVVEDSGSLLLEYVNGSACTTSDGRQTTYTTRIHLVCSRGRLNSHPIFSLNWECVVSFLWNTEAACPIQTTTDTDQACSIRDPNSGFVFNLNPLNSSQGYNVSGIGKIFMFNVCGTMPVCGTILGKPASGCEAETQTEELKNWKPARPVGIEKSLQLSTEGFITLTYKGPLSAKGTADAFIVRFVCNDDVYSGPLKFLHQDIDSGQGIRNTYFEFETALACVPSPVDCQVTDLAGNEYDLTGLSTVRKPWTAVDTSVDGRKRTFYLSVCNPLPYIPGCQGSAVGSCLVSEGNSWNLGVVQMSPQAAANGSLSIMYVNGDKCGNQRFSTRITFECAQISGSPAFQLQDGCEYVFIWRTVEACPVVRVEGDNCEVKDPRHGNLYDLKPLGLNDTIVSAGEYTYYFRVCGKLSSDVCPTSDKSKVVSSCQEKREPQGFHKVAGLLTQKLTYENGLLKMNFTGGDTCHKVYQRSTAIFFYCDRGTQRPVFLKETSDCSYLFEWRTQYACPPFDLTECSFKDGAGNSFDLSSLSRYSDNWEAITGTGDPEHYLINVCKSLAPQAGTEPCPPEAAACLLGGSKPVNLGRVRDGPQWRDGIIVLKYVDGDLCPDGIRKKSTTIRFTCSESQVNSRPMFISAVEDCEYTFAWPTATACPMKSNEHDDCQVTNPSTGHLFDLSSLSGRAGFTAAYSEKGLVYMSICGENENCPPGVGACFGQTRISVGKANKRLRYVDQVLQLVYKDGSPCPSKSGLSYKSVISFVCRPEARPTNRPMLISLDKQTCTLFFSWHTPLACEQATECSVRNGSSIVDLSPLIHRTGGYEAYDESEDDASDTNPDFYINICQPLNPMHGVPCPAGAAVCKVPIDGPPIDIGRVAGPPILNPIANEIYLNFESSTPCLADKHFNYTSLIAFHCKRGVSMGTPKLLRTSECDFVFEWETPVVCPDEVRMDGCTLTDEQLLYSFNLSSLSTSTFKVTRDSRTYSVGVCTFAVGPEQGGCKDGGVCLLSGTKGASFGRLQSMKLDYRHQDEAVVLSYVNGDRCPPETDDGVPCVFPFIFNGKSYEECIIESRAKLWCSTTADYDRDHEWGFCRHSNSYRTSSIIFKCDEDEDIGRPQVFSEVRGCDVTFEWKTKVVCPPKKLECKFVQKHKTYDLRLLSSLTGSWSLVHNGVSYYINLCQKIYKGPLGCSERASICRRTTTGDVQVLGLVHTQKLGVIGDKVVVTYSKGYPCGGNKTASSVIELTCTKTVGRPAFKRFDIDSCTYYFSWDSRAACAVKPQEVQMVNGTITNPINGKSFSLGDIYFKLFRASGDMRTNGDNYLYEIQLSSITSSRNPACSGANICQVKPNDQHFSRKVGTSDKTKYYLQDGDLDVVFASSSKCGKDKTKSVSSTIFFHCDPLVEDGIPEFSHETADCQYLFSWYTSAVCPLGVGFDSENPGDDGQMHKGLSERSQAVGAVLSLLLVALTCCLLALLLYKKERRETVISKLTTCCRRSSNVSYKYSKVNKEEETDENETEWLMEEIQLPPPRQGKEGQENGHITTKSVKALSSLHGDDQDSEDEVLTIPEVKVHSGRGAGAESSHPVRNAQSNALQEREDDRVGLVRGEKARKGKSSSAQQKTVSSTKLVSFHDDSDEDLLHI
Text: Multiple batches of the rhGAA according to the disclosure were produced in shake flasks and in perfusion bioreactors using CHO cell line GA-ATB200, the product of which is referred to as “ATB200.” Weak anion exchange (“WAX”) liquid chromatography was used to fractionate ATB200 rhGAA according to terminal phosphate and sialic acid. Elution profiles were generated by eluting the ERT with increasing amount of salt. The profiles were monitored by UV (A280 nm).
To evaluate the ability of the conventional rhGAAs in MYOZYME® and LUMIZYME® to interact with the CIMPR, the two conventional rhGAA preparations were injected onto a CIMPR affinity column (which binds rhGAA having M6P groups) and the flow through collected. The bound material was eluted with a free M6 gradient. Fractions were collected in 96-well plate and GAA activity assayed by 4MU-α-glucosidase substrate. The relative amounts of unbound (flow through) and bound (M6P eluted) rhGAA were determined based on GAA activity and reported as the fraction of total enzyme. […] Indeed, only 27% of the rhGAA in MYOZYME® and 22% of the rhGAA in LUMIZYME® contained M6P that can be productive to target it to the CIMPR on muscle cells.

CIMPR [4] = molecular target: T1, CIMPR; experiment: CIMPR plate binding assay
Experimental: In addition to having a greater percentage of rhGAA that can bind to the CIMPR, it is important to understand the quality of that interaction. LUMIZYME® and ATB200 receptor binding was determined using a CIMPR plate binding assay. Briefly, CIMPR-coated plates were used to capture GAA. Varying concentrations of rhGAA were applied to the immobilized receptor and unbound rhGAA was washed off. The amount of remaining rhGAA was determined by GAA activity. […] For LUMIZYME®, there is on average only 10% of molecules having a bis-phosphorylated N-glycan. In contrast, on average every rhGAA molecule in ATB200 has at least one bis-phosphorylated N-glycan.
N-glycan analysis via MALDI-TOF mass spectrometry confirmed that on average each ATB200 molecule contains at least one natural bis-M6P N-glycan structure.

ATB200: recombinant human acid α-glucosidase with a high content of N-glycans bearing mono-M6P and bis-M6P, produced from a GA-ATB200 cell line
Fibers with Autophagy Buildup [1]: 40-64%* | Fibers with Normal or Near-normal Appearance [1]: 36-60% | Lysosome Enlargement [1]: dramatically decreased lysosome size; also recorded: Dramatic size | concentration that saturates cellular receptors ([2]; 16-hr incubation): about 20 nM | internalization into normal and Pompe fibroblast cells ([2]; compared with LUMIZYME): internalized to a greater degree | uptake efficiency constant (Kuptake) ([2]; extrapolated, FIG. 11C): 2-3 nm | no-observed-adverse effect-level (NOAEL) (Juvenile toxicology): 150 mg/kg | CK (pediatric IOPD patient; AT2221 115 mg QW): 1187 U/L | Pro-BNP (pediatric IOPD patient; AT2221 115 mg QW): 44.29 pg/mL | CK (pediatric IOPD patient; ATB200 20 mg/kg QW): 1834 U/L | Glc4 (pediatric IOPD patient; ATB200 20 mg/kg QW): 41.53 mmol/mol CRE | Pro-BNP (pediatric IOPD patient; ATB200 20 mg/kg QW): 36.3 pg/mL | Pro-BNP (pediatric IOPD patient; ATB200 20 mg/kg q2w): 151.5 pg/mL | Glc4 (pediatric IOPD patient; ATB200 20 mg/kg, AT2221 130 mg): 29.08 mmol/mol CRE | Pro-BNP (pediatric IOPD patient; ATB200 20 mg/kg, AT2221 130 mg): 45.52 pg/mL | Pro-BNP (pediatric IOPD patient; ATB200 25 mg/kg QW): 33.24 pg/mL | LVEF (pediatric IOPD patient; ATB200 25 mg/kg QW): 60.3% | LVMI (pediatric IOPD patient; ATB200 25 mg/kg QW): 43.6 g/m^2 | CK (pediatric IOPD patient; ATB200 30 mg/kg, AT2221 130 mg): 1146 U/L | Pro-BNP (pediatric IOPD patient; ATB200 30 mg/kg, AT2221 130 mg): 29.25 pg/mL | LVEF (pediatric IOPD patient; ATB200 30 mg/kg, AT2221 130 mg): 57% | LVMI (pediatric IOPD patient; ATB200 30 mg/kg, AT2221 130 mg): 39.1 g/m^2 | CK (pediatric IOPD patient; Change AT2221 to 115 mg QW): 1277 U/L | CK (pediatric IOPD patient; Change ATB200 to 20 mg/kg QW): 1674 U/L | Glc4 (pediatric IOPD patient; Change ATB200 to 20 mg/kg QW): 50.74 mmol/mol CRE | LVEF (pediatric IOPD patient; Change ATB200 to 20 mg/kg QW): 61.1% | LVMI (pediatric IOPD patient; Change ATB200 to 20 mg/kg QW): 38 g/m^2 | CK (pediatric IOPD patient; Change ATB200 to 25 mg/kg QW): 1524 U/L | Glc4 (pediatric IOPD patient; Change ATB200 to 25 mg/kg QW): 34.85 mmol/mol CRE | Pro-BNP (pediatric IOPD patient; Change ATB200 to 25 mg/kg QW): 231.9 pg/mL | CK (pediatric IOPD patient; Change ATB200 to 30 mg/kg QW): 1661 U/L | Glc4 (pediatric IOPD patient; Change ATB200 to 30 mg/kg QW): 36.19 mmol/mol CRE | Pro-BNP (pediatric IOPD patient; Change ATB200 to 30 mg/kg QW): 180.6 pg/mL | CK (pediatric IOPD patient; change to ATB200 20 mg/kg q2w): 1393-1444 U/L | Glc4 (pediatric IOPD patient; change to ATB200 20 mg/kg q2w): 32.58 mmol/mol CRE | LVEF (pediatric IOPD patient; change to ATB200 20 mg/kg q2w): 41% | LVMI (pediatric IOPD patient; change to ATB200 20 mg/kg q2w): 42 g/m^2 | skin rash, dyspnea, cough, pale-like complexion (pediatric IOPD patient; human, in vivo, 30 mg/kg): had not developed any skin rash, dyspnea, cough, or pale-like complexion | tolerability (pediatric IOPD patients): generally well-tolerated | rhGAA that binds to the CIMPR (contains M6P) (CIMPR [3]; fraction of total enzyme by GAA activity): more than 70% | CIMPR receptor binding (CIMPR [3]; purified ATB200 rhGAA from different production batches (FIG. 5)): ≥ 70% | Kd (CIMPR [4]; M6P receptor plate binding assays): 2 to 4 nM | binding to CIMPR (CIMPR [4]; compared with LUMIZYME (FIG. 10A)): significantly better
